Assay results reported in patent publication US9258954B2, “Plant having enhanced resistance to environmental stress” (RIKEN, priority 2011, dated 2016).

Test system: Arabidopsis thaliana L. wild strain (Col-0)
Settings: 10 mM aqueous acetic acid applied to soil in pot for 9 days; compared to plant without treatment and plant treated with 0.5 mM acetic acid; FIG. 19
Method: hda6 mutant strain (axe 1-5 or sil1) and a parent strain or wild strain thereof were grown in pots at 22° C. under the conditions of 16 hours in the light and 8 hours in the dark for 3 weeks. Thereafter, water supply was terminated and the cultivation was continued at 22° C. and a humidity of 40% under the conditions of 16 hours in the light and 8 hours in the dark for about 2 weeks. In this manner, drought stress was gently given to the strains. After water was supplied again, the strains were grown at 22° C. under the conditions of 16 hours in the light and 8 hours in the dark for 5 days. The number of plants which recovered the growth was counted to determine a survival rate. The experiment was repeated three times using 40 plants per strain per experiment to calculate an average and standard deviation for the survival rate.

SMILES: CC(=O)O [acetic acid]
- drought-stress resistance (survival after drought-stress resistance test): remarkably strong drought-stress resistance
